Experimental data: article PMC5786788, “Antimicrobial Octapeptin C4 Analogues Active against Cryptococcus Species” (Antimicrobial Agents and Chemotherapy, 2018)
Converted amounts (≈) assume the structure as drawn. Where a SMILES comes first, the peptide text is derived from it. Bridges are numbered along the chain shown (N, C = ends). [ ]: non-standard residue; d: D form. The star is where a group is joined. Decanoyl(3R-OH) = CCCCCCC[C@@H](O)CC(=O)*; dDab = NCC[C@@H](N)C(=O)O; Dab = NCC[C@H](N)C(=O)O

Key:
C. gattii MMRL 2651 = settings: 72 h
Method: (§1) A broth microdilution assay was initially used to characterize the antifungal activity of the cyclic lipopeptides ([39], [40]). […] common pathogenic yeasts (C. albicans, C. glabrata, C. parapsilosis, C. neoformans, and C. gattii) and one pathogenic mold (A. fumigatus) were tested to determine the MIC for each compound (Table 1) using broth microdilution. […] The only structural difference between these molecules is the presence of a phenylalanine residue at position 6 in PMB; in PME a D-leucine is present at this location (Fig. 1).
(§2) Fungal strains were stored in 15% glycerol at −80°C until use. The fungal strains used were H99 (C. neoformans type strain) ([55]), cap59Δ (an acapsular H99 mutant) ([56]), ATCC 90113 (C. neoformans), MMRL 2651 (C. gattii), ATCC 90028 (Candida albicans), ATCC 90030 (Candida glabrata), ATCC 22019 (Candida parapsilosis), and ATCC MYA 3626 (Aspergillus fumigatus). Yeasts were cultured in liquid (1% yeast extract, 2% Bacto peptone, 2% glucose) or solid (additional 2% agar) yeast extract-peptone-dextrose (YPD) media at 30°C and maintained at 4°C for no longer than 2 weeks. A. fumigatus was prepared on potato dextrose medium at 30°C and maintained at 4°C for no longer than 2 weeks.
(§3) The MICs of the yeast strains for PMB, PME, and octapeptin C4 and its derivatives were determined in accordance with CLSI M27-A2 guidelines using YNB (Becton Dickinson, USA) medium supplemented with 10 mM ammonium sulfate and 2% glucose, a final inoculum concentration of 1.5 × 10^3 to 2.0 × 10^3 cells/ml, and incubation at 35°C for 72 h ([39]). […] The MICs for PMB, PME, and octapeptin C4 for A. fumigatus were determined in accordance with the CLSI M38-A2 guidelines ([40]) using synthetic RPMI 1640 medium (with glutamine, without bicarbonate and with phenol red; Life Technologies, USA). The final inoculum concentration was 0.4 × 10^4 to 5 × 10^4 cells/ml, with incubation at 35°C for 48 h. […] All assays were completed in triplicate. Fluconazole was used as a positive control where the MIC was determined at both 50% growth (in accordance with CLSI M27-A2 guidelines) and when there was a “no visible growth” reading.

C. neoformans ATCC 90113 = settings: ATCC 90113, 72 h
Method: as §1, §2, §3

C. neoformans H99 = system: C. neoformans H99
Method: as §1, §2, §3

[1] = system: melanized and nonmelanized C. neoformans cells; experiment: In vitro time course assay of melanization effect; assay type: cell-based, Cryptococcus neoformans; settings: melanin induced on L-DOPA agar vs suppressed on YPD agar; PMB at 12.5 μM, octapeptin C4 at 1.56 μM; 0-8 h; two replicates
Method: (A) Melanin suppressed C. neoformans. (B) Melanin induced C. neoformans. […] Samples from each flask were taken 0, 1, 2, 4, 6, and 8 h after inoculation, spread onto a YPD plate, and incubated at 30°C for 3 days, at which time the colonies were counted. The data represent the means of two replicates, and the error bars represent the SEM.
Melanization was induced by growth on L-DOPA agar medium at 30°C and suppressed by growth on YPD agar medium at 30°C. Cells were grown over 3 days and collected, washed twice in PBS, and then resuspended in PBS at a density of 1,500 to 2,000 cells/ml. Aliquots of the cells were treated with PMB sulfate, octapeptin C4, and the octapeptin C4 derivatives P1L, P1D, P4, P3, P4L, P4D, P5, P6, P7, and P8 at the determined MICs. At 0, 1, 2, 4, 6, and 8 h after inoculation, samples of the suspension were spread onto YPD agar and incubated at 30°C for 3 days, and the colonies were counted. The assay was repeated in duplicate, and paired sample t tests were performed in GraphPad Prism v7.0.

human kidney-2 cell line = settings: cited from earlier work
[2] = system: C. neoformans H99 (cap59Δ); assay type: cell-based, Cryptococcus neoformans; settings: triplicate
Description: The different susceptibility of C. neoformans and C. gattii to PMB compared to other pathogenic fungi such as C. albicans and A. fumigatus has been postulated to arise from differences in cell surface composition ([38]). One key difference is the presence of a negatively charged polysaccharide capsule in Cryptococcus spp. proposed to concentrate the cationic lipopeptides at the cell surface ([38]). To examine this potential interaction for the octapeptin series, a C. neoformans cap59Δ mutant strain deficient in the secretion of negatively charged glucuronoxylomannan (an α1–3-linked mannan containing β1,2 and β1,4 xylosyl substitutions, as well as β1,2-linked glucuronyl residues) ([41], [42]), was tested against octapeptin C4 in comparison to PMB.
as §2, §3

CCCCCCC[C@@H](O)CC(=O)N[C@H](CCN)C(=O)N[C@H]1CCNC(=O)[C@H](CC(C)C)NC(=O)[C@H](CCN)NC(=O)[C@H](CCN)NC(=O)[C@H](CC(C)C)NC(=O)[C@@H](Cc2ccccc2)NC(=O)[C@H](CCN)NC1=O [Octapeptin C4, octapeptin C4] ({Decanoyl(3R-OH)}-[dDab][Dab][Dab][dF]L[Dab][Dab]L; lactam 2-C (inferred); N-terminus assumed)
MIC C. gattii (C. gattii MMRL 2651): 3.13 µg/mL (≈ 3 µM)
MICs against various Cryptococcus strains: MMRL 2651 (C. gattii MMRL 2651): 3.13 µg/mL
MIC C. neoformans ATCC 90113 (C. neoformans ATCC 90113): 1.56 µg/mL (≈ 1.49 µM)
MICs against various Cryptococcus strains: ATCC 90113 (C. neoformans ATCC 90113): 1.56 µg/mL
MIC C. neoformans H99 (C. neoformans H99; H99, 72 h): 1.56 µg/mL (≈ 1.49 µM)
MICs against various Cryptococcus strains: H99 (C. neoformans H99; H99, 72 h): 1.56 µg/mL
fold more potent than PMB (C. neoformans H99; by MIC against C. neoformans): ~8 fold
fold more potent than PME (C. neoformans H99; by MIC against C. neoformans): > 60 fold
effect of melanization on fungicidal activity [1]: slightly enhanced
50% cytotoxic concentration (human kidney-2 cell line): 31 µM
MIC C. neoformans H99 (cap59Δ) ([2]; Table 1, CLSI M27-A2, YNB medium, 35°C, no visible growth after 72 h): 6.25 µg/mL (≈ 5.98 µM)
MICs against various Cryptococcus strains: H99 (cap59Δ) ([2]; Table 2, values consistent across replicates): 6.25 µg/mL
